Source: patent US20090163525A1, “SUBSTITUTED QUINAZOLINES WITH ANTI-CANCER ACTIVITY” (ASTRAZENECA AB, priority 2006, published 2009)

target: Mutant B-Raf (V600E) enzyme (MT B-Raf) (Homo sapiens, UniProt P15056, V600E); test: B-Raf in vitro AlphaScreen assay; type: biochemical; details: phosphorylation of biotinylated HIS-MEK-AVI, 24 μM ATP in mix
Protocol: B-Raf In-vitro AlphaScreen Assay
MT B-Raf was expressed in insect cells and affinity purified by Ni^+2 agarose followed by Q-Sepharose chromatography. Typical yield was 1.08 mg/ml at >90% purity.
The phosphorylation of the MT B-Raf substrate in the presence and absence of the compound of interest was determined. Briefly, 5 μl of enzyme/substrate/adenosine triphosphate (ATP) mix consisting of 0.12 nM MT B-Raf, 84 nM biotinylated HIS-MEK-AVI, and 24 μM ATP in 1.2× buffer was preincubated with 2 μl of compound for 20 minutes at 25° C. Reactions were initiated with 5 μl of Metal mix consisting of 24 mM MgCl2 in 1.2× buffer and incubated at 25° C. for 60 minutes and reactions were stopped by addition of 5 μl of Detection mix consisting of 20 mM HEPES, 102 mM ethylenediamine tetraacetic acid, 1.65 mg/ml BSA, 136 mM NaCl, 3.4 nM Phospho-MEK1/2 (Ser217/221) antibody (Catalog #9121, Cell Signaling Technology, Mass.), 40 μg/ml Streptavidin donor beads (Perkin Elmer, Mass., Catalog #6760002), and 40 μg/ml Protein A acceptor beads (Perkin Elmer, Mass., Catalog #6760137). Plates were incubated at 25° C. for 18 hours in the dark. Phosphorylated substrate was detected by an EnVision plate reader (Perkin Elmer, Mass.) 680 nm excitation, 520-620 nm emission. Data was graphed and IC50s calculated using Excel Fit (Microsoft).

Sequence of Mutant B-Raf (V600E) enzyme (MT B-Raf) (P15056 whole entry V600E): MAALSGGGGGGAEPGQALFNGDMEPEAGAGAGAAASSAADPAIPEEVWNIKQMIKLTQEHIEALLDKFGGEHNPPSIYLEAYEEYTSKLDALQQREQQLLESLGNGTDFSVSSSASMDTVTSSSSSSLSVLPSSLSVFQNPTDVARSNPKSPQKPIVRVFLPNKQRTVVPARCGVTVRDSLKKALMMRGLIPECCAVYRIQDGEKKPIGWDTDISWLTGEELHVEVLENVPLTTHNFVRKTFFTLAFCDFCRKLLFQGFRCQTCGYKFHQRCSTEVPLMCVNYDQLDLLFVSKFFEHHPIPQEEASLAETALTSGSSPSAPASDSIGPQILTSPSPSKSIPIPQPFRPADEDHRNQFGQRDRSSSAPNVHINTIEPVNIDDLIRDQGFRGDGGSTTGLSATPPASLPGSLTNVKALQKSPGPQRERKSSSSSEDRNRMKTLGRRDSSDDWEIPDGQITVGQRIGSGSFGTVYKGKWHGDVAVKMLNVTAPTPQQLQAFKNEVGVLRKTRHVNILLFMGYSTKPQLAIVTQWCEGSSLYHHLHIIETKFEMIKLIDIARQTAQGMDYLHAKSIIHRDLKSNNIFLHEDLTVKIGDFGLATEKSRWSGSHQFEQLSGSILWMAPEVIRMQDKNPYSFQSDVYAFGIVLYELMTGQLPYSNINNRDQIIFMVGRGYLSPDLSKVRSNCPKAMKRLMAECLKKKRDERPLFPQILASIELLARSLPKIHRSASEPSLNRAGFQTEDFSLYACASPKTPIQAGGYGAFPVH

Row | SMILES | IC50 [nM]
1 | Cc1ccc(NC(=O)Nc2cccc(C(F)(F)F)c2)cc1Nc1ccc2ncn(C)c(=O)c2c1 [Example 1, N-{4-Methyl-3-[(3-methyl-4-oxo-3,4-dihydroquinazolin-6-yl)amino]phenyl}-N-′[3-(trifluoromethyl)phenyl]urea] | 14.3
2 | Cc1ccc(NC(=O)Nc2ccc(Cl)c(Cl)c2)cc1Nc1ccc2ncn(C)c(=O)c2c1 [Example 2, N-(3,4-Dichlorophenyl)-N′-{4-methyl-3-[(3-methyl-4-oxo-3,4-dihydroquinazolin-6-yl)amino]phenyl}urea] | 363
3 | Cc1ccc(NC(=O)Nc2cccc(C(C)(C)C#N)c2)cc1Nc1ccc2ncn(C)c(=O)c2c1 [Example 6, N-[3-(1-Cyano-1-methylethyl)phenyl]-N′-{4-methyl-3-[(3-methyl-4-oxo-3,4-dihydroquinazolin-6-yl)amino]phenyl}urea] | 99
